This is an account of results in patent publication US20050064027A1, “Bioadhesive drug delivery system with enhanced gastric retention” (Spherics, Inc., priority 2001, published 2005).

The nature of this data set: Release kinetics from multi-drug macrospheres. In kind it is physicochemical. To be noted: salicylate in outer Eudragit RL 100 coating, acyclovir in core. The text has this: Fluidized bed spraying of 5% RL 100-coated 40% Acyclovir (ACV) loaded cores with 25% sodium salicylate w/w in a 10% RL 100-coating was then used to produce multi-drug macrospheres.
The starting material was the product of Example 2 (5% w/w RL 100 coated 40% ACV cores and overcoat with 10% RL 100 coating containing 25% w/w sodium salicylate). Overcoating with a 10% w/w coating of RL100 containing 25% w/w salicylate was used to produce a biphasic drug system. Sodium salicylate should be quickly delivered followed by acyclovir release. A 176.0 g lot of beads, 40% w/w Acyclovir (1.4-2.36 mm) was used as the cores for the coatings.
The release kinetics of the two drugs from the macrospheres of Example 6 were then determined. FIG. 6 is a graph of release of acyclovir (ACV) and salicylate as a function of percent total acyclovir loading, over time (in hours), from macrospheres wherein the salicylate is encapsulated in an outer Eudragit® RL 100 coating and the acyclovir is encapsulated in the core. The outer drug loading is used to achieve rapid release (three hours) as compared to more long term release of the core drug (24 hours).

Consider `Nc1nc2c(ncn2COCCO)c(=O)[nH]1` [acyclovir], for which the “time of release of drug from multi-drug macrospheres” value (from here on “time of release of drug”) was 24 h.
Turning to `O=C([O-])c1ccccc1O.[Na+]` [sodium salicylate], the “time of release of drug” value was at most 3 h. Further, the “time of release of drug” value (listed as salicylate) was “three”.
